In patent US20260325465A1, “SHP-1 INHIBITORS FOR TREATING CANCER” (MDX MANAGEMENT LLC, priority 2022, published 2026):
“Also recorded” adds a separate entry of the source.

Legend:
[1] = system: PTP/SHP-1 activity in KPC tumor; test: PTP/SHP-1 activity in KPC tumor in vivo; parameters: species or system murine; settings: with αTLR, cytokines, STING activator, RT, AZA or αPD-L1
[2] = system: KPC pancreatic ductal adenocarcinoma; test: Study-4: late-stage, large KPC pancreatic cancer; format: in vivo, mice
Protocol: FIGS. 14A-14E depict that pulse-intermittent inhibition of SHP-1 (iSHP-1) combined with TLR agonists (αTLR) treating late-stage KPC pancreatic ductal adenocarcinoma. FIG. 14A depicts the treatment scheme. Mice with large KPC tumors were treated (i.p.) consecutively for three days with TPI-I plus TLR agonists (CpG, PolyIC and R848, each 50 μg). After the initial pulse treatment, an intermittent period of 9-day was given before the 2nd cycle of treatment of two days with TPI plus TLR agonists. FIG. 14B depicts the luminescent images of mice with KPC tumor during the course of treatment. FIG. 14C depicts tumor volume changes.
Murine models: Single large pancreatic ductal adenocarcinoma (KPC-luc) C57BL6 syngeneic
Treatments: SHP-1 inhibition (iSHP-1) combined with TLR agonists (αTLR)

[3] = system: MC38 colorectal carcinoma; test: αTLR-induced inflammation in MC38 tumor-bearing mice with or without TPI-1; format: in vivo, C57BL6 mice
Source text: FIGS. 17A-17C depict inhibition of SHP-1 (iShp1) abrogates tumor-imposed immune suppression under pro-inflammatory challenges. FIG. 17A depicts neutrophil infiltration in different organs measured at various time point following αTLR challenge. FIG. 17B depicts neutrophil infiltration in tumor tissues in mice treated with αTLR plus TPI-1. FIG. 17C depicts the phenotype of intratumoral macrophages.
MC38 colorectal carcinoma was established (via subcutaneous administration) in syngeneic C57BL6 mice. After tumor sizes reached more than 200 mm^3, the tumor-bearing mice were induced systemic inflammatory condition by TLR agonists (αTLR, CpG/PolyIC/R848, each 25 μg) administrated via subcutaneous administration at the location distal from MC38 tumor. A group of mice were concurrently administrated with TPI-1 (1 mg/kg) via subcutaneous administration to achieve systemic SHP-1 inhibition.

[4] = system: EL4, B16, MC38, Pan01, KPC and LLC cancer cells; test: Phagocytosis by murine bone marrow-derived macrophages; format: cell-based; settings: 1 μg/ml
Protocol: (§1) FIGS. 2A-2G depict that the inhibition of SHP-1 enhances macrophage proinflammatory response, antigen presentation and phagocytosis in a tumor milieu. FIG. 2A and FIG. 2B depict that SHP-1 activity in macrophages is triggered by proinflammatory stimulation and the extracellular cancer cell ligation (“touching”) of macrophages (green bar in FIG. 2A). […] The SHP-2 inhibitor SHP099 (1 μg/ml) was used in assays. FIG. 2C depicts the inhibition of SHP-1 by TPI-1 dose-dependently recovers IFNγ/LPS-induced activation of STAT1 (p-STAT1) and Erk1/2 (p-Erk1/2) de-activated by SHP-1 (red line). FIG. 2D and FIG. 2E depict that the inhibition of SHP-1 in macrophages by TPI-1 enhances production of proinflammatory cytokines (FIG. 2D) and expression of immunogenic antigen presentation machinery (FIG. 2E) by IFNγ/LPS in a tumor milieu. […] The SHP-1 and SHP-2 inhibitors TPI-1 and SHP099, respectively, was used at 1 μg/ml in assays.

SHP-1 = SHP-1 activity in macrophages under proinflammatory stimulation and cancer cell ligation; format: cell-based; settings: IFNγ/LPS stimulation, cancer cell ligation
Protocol: as §1
FIGS. 3A-3E depict modulation of SHP-1 activity in proinflammatory macrophages in cancer. Macrophages co-cultured with cancer cells were stimulated with IFNγ/LPS or TLR agonists (αTLR) comprising CpG, polycytidylic acid (i.e., PolyI:C) and R848 (each 0.4 μg/ml) for 30 min (37 °C) in the presence or the absence of different SHP-1 or SHP-2 inhibitor or activator, followed by cell lysis and assays of PTP activity. FIG. 3A depicts SHP-1 activity regulation mechanisms. […] FIG. 3E depicts that PKCθ negatively regulates SHP-1 activity at a moderate level.
In addition to TPI-1, several other SHP-1 inhibitors such as PTP inhibitor-I, PTP inhibitor-III, and recently reported vitamin E (9, 10) and phomoxanthone A and B (P×A and P×B) (11) were tested. Given that PKCθ modulates SHP-1 activity through phosphorylating Ser591 (12, 13), PKCθ inhibitor and activator were also tested in various assays.

[5] = system: KPC pancreatic ductal adenocarcinoma; test: TME analysis of KPC pancreatic ductal adenocarcinoma with tumor-focal RT; format: in vivo, murine; settings: TPI-1 combined RT
Source text: FIGS. 9A-9C depict that the inhibition of SHP-1 by TPI-1 combined with tumor-focal RT reprogram TME of KPC pancreatic ductal adenocarcinoma towards proinflammatory cancer elimination. FIG. 9A depicts treatment scheme and TME analyses on day 5. The table depicts the percentages of various populations within total CD45+ cells. The bar graph depicts the percentages of various populations within total cells.

[6] = Study-1: continuous vs intermittent iSHP-1 with TLR agonists, adverse toxicity; format: in vivo, mice; settings: i.p.
Protocol: FIGS. 11A-11E depict the impact of continuous or intermittent iShp-1 treatment on the efficacy and adverse toxicity. FIG. 11A depicts the study design. Mice with KPC pancreatic cancer were either continuously treated with TPI-1 (1× per day) or in an intermittent fashion with gapping days between two treatments (intermittent). Three doses, 1, 3 and 10 mg/kg (i.p.), were tested and TLR agonists (CpG plus PolyI:C, each 10 μg, i.p., 1× every 3 day) was given to kickstart inflammatory response. […] Tumor imaging (FIG. 11B) and volume change records (FIG. 11C) indicate similar efficacies of iShp-1 with continuous or intermittent schemes.
Tumor model: Single engraftment of KPC pancreatic adenocarcinoma
Treatments & dosing strategies: i) iSHP-1—TPI-1, 1, 3, and 10 mg/kg; i.p. either 1× per day (continuous), or following an intermittent schedule depicted in FIG. 11. ii) TLR agonists (αTLR)—CpG, PolyI:C, each 10 μg; i.p. every 3 days

[7] = system: THP-1 leukemia cells and HT29 colon cancer cells; test: Phagocytosis by human monocytes-derived macrophages; format: cell-based; settings: 1 μg/ml
Protocol: as §1

Which “treatment-induced PTP/SHP-1 activity abated” value [1] does the source give for O=C1C=CC(=O)C(c2cc(Cl)ccc2Cl)=C1 [TPI-1] here?
The value was “abated”.

What about the anti-tumor immune cells ([2]; TPI-1 combined with αTLR, i.p.) of the same compound?
The anti-tumor immune cells was “bolstered anti-tumor immune cells such as CD8+ T cells, NK cells and neutrophils”.

What about the “eradication of late-stage tumors” value ([2]; TPI-1 combined with αTLR, i.p.) of the same compound?
The value was “effectively eradiated late-stage, large KPC pancreatic cancers”.

What about the intratumoral immunosuppressive populations ([2]; TPI-1 with TLR agonists, day 4) of the same compound?
The intratumoral immunosuppressive populations was “reduction of intratumoral immunosuppressive populations including macrophages (MØ) and MDSC”.

And the “TNFα and IL12 expression of intratumoral macrophages” value ([3]; TPI-1 1 mg/kg s.c. with αTLR)?
The value was “increased TNFα and IL12 expression”.

What about the “neutrophil infiltration in tumor” value ([3]; TPI-1 1 mg/kg s.c. with αTLR (CpG/PolyIC/R848, each 25 μg), 1 mg/kg) of the same compound?
Its value is “enabled neutrophil infiltration upon αTLR; also recorded: increased neutrophil infiltration in tumor tissues”.

And the “phagocytosis of cancer cells” value [4]?
The value was “promotes proinflammatory-activated macrophages for phagocytosis of cancer cells”.

What about the “SHP-1 activity in macrophages (effect in words)” value (SHP-1) of the same compound?
The value was “potently inhibited SHP-1 activity at low concentrations”.

And the “CD8 T cell expansion and p15E reactivity” value [5]?
The value was “marked expansion of CD8 T cells with significant high frequency of reactivity to tumor-specific antigen p15E”.

What about the intratumoral macrophage phenotype [5] of the same compound?
Its intratumoral macrophage phenotype is “proinflammatory phenotype and increased antigen presentation capacity”.

What about the “immune cell infiltration in TME” value ([5]; day 5) of the same compound?
Its value is “induced neutrophil (PMN) infiltration, NK cell increases and CD8 T cell expansion”.

And the “adverse effects, continuous dosing” value ([6]; 1× per day)?
The value was “incurred acute anemia, proteinuria, splenomegaly and lung inflammation”.

What about the “adverse effects, intermittent dosing” value ([6]; intermittent) of the same compound?
The value was “did not display or were minor”.

And the “phagocytosis of cancer cells” value [7]?
Its value is “promotes proinflammatory-activated macrophages for phagocytosis of cancer cells”.
